Among the data in US6211227A, “Tricyclic compounds” (Kyowa Hakko Kogyo Co., Ltd., priority 1997, dated 2001) are response vs control in vivo and IC50 values, retold here.

What is called IC50 is the concentration needed to halve the response being measured. Read a high IC50 as weaker potency.

In one test the test system is bladder. In words: animal or person. The conditions noted are these: Rattus norvegicus, po, read-out: Contraction interval.
For test [1], the system named is detrusor muscle (isolated urinary bladder strips). In words: Relaxation of rhythmic contraction induced by 15 mmol/l KCl in isolated urinary bladder strips (Test Example 2). The conditions noted are these: Cavia porcellus; KCl 15 mmol/l; cumulative, contact time 15-30 minutes; 50% relaxant of maximum response. More on the design: species or system guinea pig (male albino Hartley). The text has this: (§1) The activity of Compounds (I) as therapeutic agents for pollakiuria and urinary incontinence is described below. In the following Test Examples 1 and 2, IC50 value was defined as the concentration at which a test compound produces 50% relaxant of maximum response of detrusor muscle.
(§2) Male albino Hartley guinea pigs (350-550 g) were used as test animals. Each animal was exsanguinated to death under sodium pentobarbital anesthesia. The lower abdominal cavity was opened and its bladder was positioned. The connective tissue and the fat tissue around the bladder were removed, and the bladder was washed. After bilateral pelvic nerves on the surface of the abdominal side of the bladder were dissected, the bladder was taken out on the entrance of ureter. The bladder was washed with a Krebs-Henseleit buffer [composition (mM): NaCl 118, KCl 4.7, MgSO4 1.2, KH2 PO4 1.2, CaCl2 2.5, NaHCO3 25, and D-glucose 11.1], and then put on a gauze patch soaked in the buffer in a Petri dish. The dome and the trigone of the bladder were cut away. The back of the bladder was cut vertically in the middle with scissors, and the bladder was put flat on the gauze patch. The mucosa of the bladder was removed. The back of the bladder was cut vertically to get 6 strips which are ca. 2.0 mm wide and ca. 10 mm long.
(§3) Each strip was tied at one end to plastic rod and placed in a 20 ml organ bath containing a Krebs-Henseleit solution which was maintained at 37° C. and bubbled vigorously with a gas mixture of 5% CO2 and 95% O2. The pH of the solution was adjusted to about 7.4. The other end of the strip was tied via silk thread to a force displacement transducer (NIHON KODEN TB-611T). The transducer was connected to a polygraph (NIHON KODEN AP-621G), and the changes in tension were recorded on a recorder (YOKOGAWA type 3066). The polygraph was graduated by 0.5 g/cm.
Isolated urinary bladder strips were prepared in the same manner as in Test Example 1, and the tension of the preparation was measured. After the tension of the tissue was adjusted to be a steady state at 1 g, 15 mmol/l KCl was applied. After the rhythmic contraction was confirmed to appear by KCl, the tissue was washed. Then, 15 mmol/l KCl was applied again. After the rhythmic contraction induced by KCl became constant, a test compound was applied by the cumulative method (half-logarithmic increment). The contact time at each concentration was 15-30 minutes. The activity of the compound was expressed as the maximum relaxation rate (%) against the tension induced by the agonist.

Test [2] has the same test system. Nature of the test: Relaxation of contraction induced by 50 mmol/l KCl in isolated urinary bladder strips (Test Example 1). More on the design: species or system guinea pig (male albino Hartley). The conditions noted are these: Cavia porcellus, 0.5 h; KCl 50 mmol/l; cumulative, contact time 30 minutes; 50% relaxant of maximum response.
Source text: as §1, §2, §3
After the tissue was incubated in the buffer for 15 minutes without preloading, tension was added thereto for about one hour. The preloading tension added was 1.5 g and it was relaxed to about 1 g. The strips were allowed to equilibrate until their contractions became constant and tension was adjusted to 1 g. After this equilibrium period, 50 mmol/l KCl (the whole content in the bath) was added, and the tissue was washed 10 minutes later. KCl was added to the tissue at intervals of 30 minutes, followed by washing 10 minutes later, and KCl was applied repeatedly until the developed tension induced by KCl becomes constant. When the tissue was confirmed to contract constantly by the application of KCl and relax to the steady state after washing, 50 mmol/l KCl was applied again. After the tissue reached the steady state and the base line was obtained, a test compound was applied by the cumulative method (half-logarithmic increment). The contact time at each concentration was 30 minutes. The activity of the compound was expressed as the maximum relaxation rate (%) against the tension induced by the agonist.

Where two headings read alike, the source gives them in different places.

Take `COc1ccc2c(c1)CS(=O)(=O)c1cccc(NC(=O)C(C)(O)C(F)(F)F)c1C2=O` (stereo not drawn) [Compound 1-24, 5,5-Dioxo-8-methoxy-1-(3,3,3-trifluoro-2-hydroxy-2-methylpropanoylamino)-6,11-dihydrodibenzo[b,e]thiepin-11-one]: the response vs control in vivo at 1 mg/kg was 140 ± 11% in the test with bladder (1 h); 121 ± 17% in the test with bladder (2 h); 160 ± 19% in the test with bladder (3 h); 169 ± 25% in the test with bladder (4 h); 169 ± 25% in the test with bladder (5 h). The compound also had an IC50 in test [1] of over 10 µM.
`CC(O)(C(=O)Nc1cccc2c1C(=O)c1cccc(F)c1CS2(=O)=O)C(F)(F)F` (stereo not drawn) [Compound 1-19, 5,5-Dioxo-7-fluoro-1-(3,3,3-trifluoro-2-hydroxy-2-methylpropanoylamino)-6,11-dihydrodibenzo[b,e]thiepin-11-one]: the response vs control in vivo at 1 mg/kg in the test with bladder (1 h) turned out to be 114 ± 9%; in the test on bladder (2 h), 139 ± 7%; in the test on bladder (3 h), 136 ± 11%; in the test with bladder (4 h), 145 ± 6%; in the test with bladder (5 h), 167 ± 15%. In test [1], this compound registered a half-inhibitory concentration (IC50) of 4.3 µM.
`O=C1c2sccc2CS(=O)(=O)c2cccc(NC(=O)C3CCCO3)c21` (stereo not drawn) [Compound 3-9, 5,5-Dioxo-9-(2-tetrahydrofuroylamino)-4,10-dihydrothieno[3,2-c][1]benzothiepin-10-one]: the response vs control in vivo at 1 mg/kg came out at 122 ± 7% in the test with bladder (1 h); 128 ± 16% with bladder (2 h); 129 ± 18% in the test with bladder (3 h); 150 ± 19% in the test with bladder (4 h); 160 ± 21% in the test on bladder (5 h). This compound also registered a 50% inhibitory concentration (IC50) in test [1] of over 10 µM.
The compound `CC(O)(C(=O)Nc1ccc2c(c1)S(=O)(=O)Cc1occc1C2=O)C(F)(F)F` (stereo not drawn) [Compound 1-8, 9,9-Dioxo-7-(3,3,3-trifluoro-2-hydroxy-2-methylpropanoylamino)-4,10-dihydrofuro[2,3-c][1]benzothiepin-4-one] came in with an IC50 in test [1] of 7.5 µM.
Consider `CC(O)(C(=O)Nc1ccc2c(c1)S(=O)(=O)Cc1ccccc1C2=O)C(F)(F)F` (stereo not drawn) [Compound 1-4, 5,5-Dioxo-3-(3,3,3-trifluoro-2-hydroxy-2-methylpropanoylamino)-6,11-dihydrodibenzo[b,e]thiepin-11-one], for which the 50% inhibitory concentration (IC50) worked out at 3.2 µM in test [1] and 4.5 µM in test [2].
Take `CC1(C)Oc2ccc(C#N)cc2C(N2CCCC2=O)C1O` (stereo not drawn) [Cromakalim, cromakalim, reference compound]: the response vs control in vivo at 1 mg/kg amounted to 124% in the test with bladder (1 h); 133% with bladder (2 h); 142% in the test with bladder (3 h); 133% in the test with bladder (4 h); 133% in the test on bladder (5 h).
Regarding `CC(O)(C(=O)Nc1ccc2c(c1)S(=O)(=O)Cc1ccc(F)cc1C2=O)C(F)(F)F` (stereo not drawn) [Compound 1-22, 5,5-Dioxo-9-fluoro-3-(3,3,3-trifluoro-2-hydroxy-2-methylpropanoylamino)-6,11-dihydrodibenzo[b,e]thiepin-11-one], in test [1], inhibition was half-maximal at 6.5 µM (IC50).
In test [1], `Cc1ccc(NC(=O)C(C)(O)C(F)(F)F)c2c1S(=O)(=O)Cc1ccsc1C2=O` (stereo not drawn) [Compound 1-29, 5,5-Dioxo-6-methyl-9-(3,3,3-trifluoro-2-hydroxy-2-methylpropanoylamino)-4,10-dihydrothieno[3,2-c][1]benzothiepin-10-one] yielded an IC50 of 2.4 µM.
For the compound `CCC(C)(O)C(=O)Nc1cccc2c1C(=O)c1sccc1CS2(=O)=O` (stereo not drawn) [Compound 3-14, 5,5-Dioxo-9-(2-hydroxy-2-methylbutanoylamino)-4,10-dihydrothieno[3,2-c][1]benzothiepin-10-one], the half-maximal inhibitory concentration (IC50) in test [1] is over 10 µM.
With `CC(C)(O)C(=O)Nc1cccc2c1C(=O)c1sccc1CS2(=O)=O` [Compound 3-12, 5,5-Dioxo-9-(2-hydroxy-2-methylpropanoylamino)-4,10-dihydrothieno[3,2-c][1]benzothiepin-10-one], the response vs control in vivo at 1 mg/kg worked out at 118 ± 18% with bladder (1 h); 153 ± 20% in the test on bladder (2 h); 152 ± 17% in the test with bladder (3 h); 161 ± 26% in the test on bladder (4 h); 165 ± 19% with bladder (5 h). In test [1], the IC50 is over 10 µM.
As to `CC(O)(C(=O)Nc1ccc2c(c1)C(=O)c1sccc1CS2(=O)=O)C(F)(F)F` (stereo not drawn) [Compound 1-9, 5,5-Dioxo-8-(3,3,3-trifluoro-2-hydroxy-2-methylpropanoylamino)-4,10-dihydrothieno[3,2-c][1]benzothiepin-10-one], the response vs control in vivo at 1 mg/kg in the test on bladder (1 h) was 129 ± 23%; in the test on bladder (2 h), 123 ± 10%; in the test with bladder (3 h), 143 ± 12%; with bladder (4 h), 135 ± 16%; with bladder (5 h) it was 130 ± 5%. The compound further showed a half-inhibitory concentration (IC50) in test [1] of over 10 µM.
Regarding `CC(O)(C(=O)Nc1cccc2c1C(=O)c1cccnc1CS2(=O)=O)C(F)(F)F` (stereo not drawn) [Compound 1-14, 10,10-Dioxo-6-(3,3,3-trifluoro-2-hydroxy-2-methylpropanoylamino)-5,11-dihydro[1]benzothiepino[3,4-b]pyridin-5-one], the IC50 in test [1] is over 10 µM.
Turning to `COc1ccc(NC(=O)C(C)(O)C(F)(F)F)c2c1S(=O)(=O)Cc1ccsc1C2=O` (stereo not drawn) [Compound 1-28, 5,5-Dioxo-6-methoxy-9-(3,3,3-trifluoro-2-hydroxy-2-methylpropanoylamino)-4,10-dihydrothieno[3,2-c][1]benzothiepin-10-one], the response vs control in vivo at 1 mg/kg came to 127 ± 10% with bladder (1 h); 139 ± 7% in the test on bladder (2 h); 133 ± 6% with bladder (3 h); 140 ± 3% in the test on bladder (4 h); 145 ± 3% in the test with bladder (5 h). This compound displayed an IC50 in test [1] of over 10 µM.
For `CC(O)(C(=O)Nc1ccc(Cl)c2c1C(=O)c1sccc1CS2(=O)=O)C(F)(F)F` (stereo not drawn) [Compound 1-33, 6-Chloro-5,5-dioxo-9-(3,3,3-trifluoro-2-hydroxy-2-methylpropanoylamino)-4,10-dihydrothieno[3,2-c][1]benzothiepin-10-one], the response vs control in vivo at 1 mg/kg with bladder (1 h) was found to be 124 ± 15%; in the test with bladder (2 h), 137 ± 15%; with bladder (3 h) it was 137 ± 4%; in the test on bladder (4 h), 142 ± 10%; in the test with bladder (5 h) it was 148 ± 21%. The compound further came in with a 50% inhibitory concentration (IC50) in test [1] of 0.7 µM.
On to `CC(O)(C(=O)Nc1cccc2c1C(=O)c1ccoc1CS2(=O)=O)C(F)(F)F` (stereo not drawn) [Compound 1-7, 9,9-Dioxo-5-(3,3,3-trifluoro-2-hydroxy-2-methylpropanoylamino)-4,10-dihydrofuro[2,3-c][1]benzothiepin-4-one], for which the response vs control in vivo at 1 mg/kg with bladder (1 h) is 116 ± 9%; with bladder (2 h) it was 138 ± 12%; with bladder (3 h), 156 ± 17%; in the test with bladder (4 h), 155 ± 16%; with bladder (5 h), 155 ± 17%. Besides, the half-maximal inhibitory concentration (IC50) in test [1] is over 10 µM.
In the case of `CC(O)(C(=O)Nc1ccc(F)c2c1C(=O)c1sccc1CS2(=O)=O)C(F)(F)F` (stereo not drawn) [Compound 1-35, 5,5-Dioxo-6-fluoro-9-(3,3,3-trifluoro-2-hydroxy-2-methylpropanoylamino)-4,10-dihydrothieno[3,2-c][1]benzothiepin-10-one], the response vs control in vivo at 1 mg/kg with bladder (1 h) turned out to be 115 ± 2%; in the test on bladder (2 h), 133 ± 12%; in the test with bladder (3 h), 131 ± 15%; with bladder (4 h), 152 ± 4%; in the test with bladder (5 h), 148 ± 3%. Besides, the IC50 in test [1] is 2.5 µM.
